Tests used:
[1] = target: JAK1 (Homo sapiens (Human), UniProt P23458); assay: Biochemical JAK1 kinase assay (LanthaScreen)
Method in brief: (§1)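 GST-JAK + GFP-STAT1 peptide, HEPES pH 7.5/MgCl2/EGTA/Brij-35 buffer; cpd preincubation 1 h RT; ATP start, 1 h RT; stop with 10 mM EDTA + 2 nM Tb-anti-pSTAT1; TR-FRET 520/495. 4-parameter IC50 → pKi (Cheng-Prusoff).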

[2] = target: JAK2 (Homo sapiens (Human), UniProt O60674); assay: Biochemical JAK2 kinase assay (LanthaScreen)
Method in brief: as §1

[3] = system: IL-2 stimulated STAT5 phosphorylation in Tall-1 human T cell line (JAK3); assay: Cellular JAK3 potency assay: inhibition of IL-2 stimulated pSTAT5 in Tall-1 T cells; format: cell-based
Method in brief: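 Tall-1 cells, 45,000 per well, preincubated 1 hour with compound at 37 °C, then stimulated 30 minutes with IL-2 at 300 ng/ml final. pSTAT5 (Tyr694/699) in lysates quantified by AlphaLISA SureFire Ultra. pIC50 derived from inhibition curves, given as mean with SD.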

[4] = target: JAK3 (Homo sapiens (Human), UniProt P52333); assay: Biochemical JAK3 kinase assay (LanthaScreen)
Method in brief: as §1

[5] = target: Tyk2 (Homo sapiens (Human), UniProt P29597); assay: Biochemical Tyk2 kinase assay (LanthaScreen)
Method in brief: as §1

[6] = IL-2 stimulated pSTAT5, Tall-1 T cells
[7] = selectivity JAK3 over JAK1, difference of pKi

Chain of Tyk2 (P29597 whole entry): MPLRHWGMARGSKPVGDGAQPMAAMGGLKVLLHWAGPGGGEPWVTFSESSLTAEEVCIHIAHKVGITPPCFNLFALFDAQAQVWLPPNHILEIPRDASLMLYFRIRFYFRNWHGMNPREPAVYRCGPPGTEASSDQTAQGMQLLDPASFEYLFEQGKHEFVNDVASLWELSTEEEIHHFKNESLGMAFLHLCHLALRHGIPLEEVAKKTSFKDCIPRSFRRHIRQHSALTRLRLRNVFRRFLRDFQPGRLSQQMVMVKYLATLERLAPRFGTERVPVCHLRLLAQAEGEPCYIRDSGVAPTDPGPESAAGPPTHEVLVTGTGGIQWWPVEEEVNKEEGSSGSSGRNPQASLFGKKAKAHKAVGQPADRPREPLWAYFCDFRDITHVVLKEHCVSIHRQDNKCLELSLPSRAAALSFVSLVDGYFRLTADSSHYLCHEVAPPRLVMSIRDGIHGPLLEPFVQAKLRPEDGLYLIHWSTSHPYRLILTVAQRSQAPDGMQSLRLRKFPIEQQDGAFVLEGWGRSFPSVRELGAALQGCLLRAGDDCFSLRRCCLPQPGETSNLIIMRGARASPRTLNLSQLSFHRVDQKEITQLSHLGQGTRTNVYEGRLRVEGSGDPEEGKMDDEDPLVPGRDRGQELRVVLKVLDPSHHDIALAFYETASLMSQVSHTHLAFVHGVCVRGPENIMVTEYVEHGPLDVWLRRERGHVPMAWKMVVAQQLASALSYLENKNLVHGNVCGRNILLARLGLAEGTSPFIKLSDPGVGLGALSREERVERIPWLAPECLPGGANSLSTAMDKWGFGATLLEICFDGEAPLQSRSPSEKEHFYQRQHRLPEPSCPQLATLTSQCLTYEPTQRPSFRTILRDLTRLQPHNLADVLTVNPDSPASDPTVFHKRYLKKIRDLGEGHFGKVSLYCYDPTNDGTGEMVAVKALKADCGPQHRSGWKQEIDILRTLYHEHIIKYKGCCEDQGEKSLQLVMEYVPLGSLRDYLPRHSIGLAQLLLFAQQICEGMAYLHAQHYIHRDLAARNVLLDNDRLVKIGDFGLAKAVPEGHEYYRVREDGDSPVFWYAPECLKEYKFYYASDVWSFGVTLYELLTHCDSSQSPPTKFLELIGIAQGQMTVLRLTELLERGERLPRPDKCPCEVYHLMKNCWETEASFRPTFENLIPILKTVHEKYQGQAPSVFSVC
Chain of JAK3 (P52333 whole entry): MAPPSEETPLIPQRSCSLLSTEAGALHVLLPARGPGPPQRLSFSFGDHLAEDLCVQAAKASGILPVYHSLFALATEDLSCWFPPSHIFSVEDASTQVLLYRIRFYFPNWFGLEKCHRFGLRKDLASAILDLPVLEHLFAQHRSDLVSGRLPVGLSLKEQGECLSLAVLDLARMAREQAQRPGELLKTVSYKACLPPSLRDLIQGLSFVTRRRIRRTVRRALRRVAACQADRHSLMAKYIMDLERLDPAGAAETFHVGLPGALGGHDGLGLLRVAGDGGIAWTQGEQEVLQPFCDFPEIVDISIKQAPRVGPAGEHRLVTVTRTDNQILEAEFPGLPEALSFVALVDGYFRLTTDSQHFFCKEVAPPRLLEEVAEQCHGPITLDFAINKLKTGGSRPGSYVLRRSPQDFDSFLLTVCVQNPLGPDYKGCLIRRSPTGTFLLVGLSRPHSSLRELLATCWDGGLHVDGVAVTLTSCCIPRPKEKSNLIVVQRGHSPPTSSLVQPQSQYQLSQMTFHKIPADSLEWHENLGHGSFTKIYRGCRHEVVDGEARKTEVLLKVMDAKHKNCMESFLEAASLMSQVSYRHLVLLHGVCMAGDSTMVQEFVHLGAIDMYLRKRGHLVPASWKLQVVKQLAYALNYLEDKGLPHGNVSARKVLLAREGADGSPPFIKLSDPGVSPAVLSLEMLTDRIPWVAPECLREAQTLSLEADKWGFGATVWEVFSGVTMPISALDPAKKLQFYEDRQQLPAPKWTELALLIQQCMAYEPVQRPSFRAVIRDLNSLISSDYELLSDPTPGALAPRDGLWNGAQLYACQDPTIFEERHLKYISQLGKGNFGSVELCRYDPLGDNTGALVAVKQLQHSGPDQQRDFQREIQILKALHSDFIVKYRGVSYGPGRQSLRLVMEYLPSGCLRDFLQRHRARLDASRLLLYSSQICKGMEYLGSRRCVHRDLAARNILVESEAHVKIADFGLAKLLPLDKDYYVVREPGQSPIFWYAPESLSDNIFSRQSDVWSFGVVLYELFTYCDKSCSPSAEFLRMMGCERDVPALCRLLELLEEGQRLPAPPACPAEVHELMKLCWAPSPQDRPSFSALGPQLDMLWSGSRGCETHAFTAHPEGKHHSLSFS
Chain of JAK1 (P23458 whole entry): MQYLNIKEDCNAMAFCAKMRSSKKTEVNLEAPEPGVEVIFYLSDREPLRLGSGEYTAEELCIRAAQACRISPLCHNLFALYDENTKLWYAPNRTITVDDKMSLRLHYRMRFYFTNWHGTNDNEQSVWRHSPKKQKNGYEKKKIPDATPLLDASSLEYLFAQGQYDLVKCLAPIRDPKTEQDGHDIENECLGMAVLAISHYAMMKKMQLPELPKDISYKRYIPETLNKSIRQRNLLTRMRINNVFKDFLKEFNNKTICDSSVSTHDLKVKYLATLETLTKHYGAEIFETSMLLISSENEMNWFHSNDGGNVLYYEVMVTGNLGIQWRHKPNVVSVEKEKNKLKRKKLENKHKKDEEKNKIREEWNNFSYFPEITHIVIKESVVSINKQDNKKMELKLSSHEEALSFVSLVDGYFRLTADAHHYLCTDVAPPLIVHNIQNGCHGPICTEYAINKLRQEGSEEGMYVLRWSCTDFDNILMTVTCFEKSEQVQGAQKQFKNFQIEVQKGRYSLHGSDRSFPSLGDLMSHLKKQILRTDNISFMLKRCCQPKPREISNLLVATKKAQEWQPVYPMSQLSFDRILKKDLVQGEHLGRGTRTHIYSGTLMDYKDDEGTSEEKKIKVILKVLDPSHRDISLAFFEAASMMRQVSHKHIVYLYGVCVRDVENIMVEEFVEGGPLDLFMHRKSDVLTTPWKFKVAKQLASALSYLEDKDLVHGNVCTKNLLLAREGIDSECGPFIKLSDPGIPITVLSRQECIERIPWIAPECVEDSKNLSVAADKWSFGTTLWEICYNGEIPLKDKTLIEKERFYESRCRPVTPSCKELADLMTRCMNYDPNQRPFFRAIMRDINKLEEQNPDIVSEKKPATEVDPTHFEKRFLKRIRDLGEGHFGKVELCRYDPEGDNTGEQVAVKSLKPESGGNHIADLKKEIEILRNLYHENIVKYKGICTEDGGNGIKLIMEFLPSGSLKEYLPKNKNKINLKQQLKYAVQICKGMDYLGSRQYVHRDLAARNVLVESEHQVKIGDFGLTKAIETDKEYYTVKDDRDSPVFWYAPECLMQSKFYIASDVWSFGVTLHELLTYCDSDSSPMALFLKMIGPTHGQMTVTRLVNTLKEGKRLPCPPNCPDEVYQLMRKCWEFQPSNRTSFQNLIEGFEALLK
Chain of JAK2 (O60674 whole entry): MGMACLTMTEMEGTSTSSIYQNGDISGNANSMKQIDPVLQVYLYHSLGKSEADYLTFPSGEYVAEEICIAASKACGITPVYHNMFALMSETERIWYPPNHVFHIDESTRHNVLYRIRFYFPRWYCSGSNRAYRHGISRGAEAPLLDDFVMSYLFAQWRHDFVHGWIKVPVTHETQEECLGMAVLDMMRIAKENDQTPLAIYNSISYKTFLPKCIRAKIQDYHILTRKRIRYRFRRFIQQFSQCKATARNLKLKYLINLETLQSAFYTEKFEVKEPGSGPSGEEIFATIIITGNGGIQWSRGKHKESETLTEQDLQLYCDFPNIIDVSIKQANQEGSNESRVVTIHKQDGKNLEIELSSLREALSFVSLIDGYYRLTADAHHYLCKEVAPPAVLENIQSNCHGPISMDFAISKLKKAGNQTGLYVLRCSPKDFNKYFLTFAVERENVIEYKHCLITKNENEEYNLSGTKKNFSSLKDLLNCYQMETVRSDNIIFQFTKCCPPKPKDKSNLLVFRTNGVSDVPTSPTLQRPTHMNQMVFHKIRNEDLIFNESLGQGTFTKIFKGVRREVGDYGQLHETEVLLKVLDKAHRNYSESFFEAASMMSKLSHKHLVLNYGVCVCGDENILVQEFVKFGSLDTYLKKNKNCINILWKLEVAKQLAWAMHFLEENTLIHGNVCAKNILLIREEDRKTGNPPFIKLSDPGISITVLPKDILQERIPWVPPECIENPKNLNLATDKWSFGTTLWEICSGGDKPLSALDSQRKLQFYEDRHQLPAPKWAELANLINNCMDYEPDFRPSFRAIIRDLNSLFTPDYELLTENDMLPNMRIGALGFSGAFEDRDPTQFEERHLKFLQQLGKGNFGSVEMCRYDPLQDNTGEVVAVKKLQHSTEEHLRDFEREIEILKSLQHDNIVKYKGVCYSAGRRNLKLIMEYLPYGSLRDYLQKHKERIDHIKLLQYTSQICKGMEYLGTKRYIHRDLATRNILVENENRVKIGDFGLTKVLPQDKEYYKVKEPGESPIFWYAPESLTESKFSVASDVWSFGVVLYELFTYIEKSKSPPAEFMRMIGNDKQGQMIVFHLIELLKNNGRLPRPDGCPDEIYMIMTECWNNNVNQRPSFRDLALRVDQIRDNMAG

Row | SMILES | JAK 1 (pKi) [1] | JAK 2 (pKi) [2] | Tall-1 (pIC50) [3, 6] | JAK 3 (pKi) [4] | JAK3 (pKi)-JAK1 (pKi) [4, 7] | Tyk 2 (pKi) [5] | Tall-1 (pIC50) ([3]; IL-2 stimulated pSTAT5 in Tall-1 T cells) | JAK3 (pKi)-JAK1 (pKi) ([4]; selectivity, difference of pKi values)
1 | C=CC(=O)N1CC(CCn2c(=O)ccc3cnc(Nc4ccc(N5CCN(C)CC5)c(F)c4)nc32)C1 [Example 48] | E (E represents a pKi value of 7 or below (Ki of 100 nM or above)) | E (E represents a pKi value of 7 or below (Ki of 100 nM or above)) | B (B represents a pC50 value between 6.7 (included) and 7.5 (IC50 between 200 nM and 32 nM)) | B (B represents pKi value between 9 and 10 (Ki between 1 nM and 0.1 nM)) | A (A represents a value of 3 or above) | E (E represents a pKi value of 7 or below (Ki of 100 nM or above)) |  | 
2 | C=CC(=O)N1CC(CCn2c(=O)ccc3cnc(Nc4cccc(CN5CCN(S(=O)(=O)C6COC6)CC5)c4)nc32)C1 [Example 126] | E (E represents a pKi value of 7 or below (Ki of 100 nM or above)) | E (E represents a pKi value of 7 or below (Ki of 100 nM or above)) | B (B represents a pC50 value between 6.7 (included) and 7.5 (IC50 between 200 nM and 32 nM)) | A (A represents a pKi value≥10 (Ki≤0.1 nM)) | A (A represents a value of 3 or above) | E (E represents a pKi value of 7 or below (Ki of 100 nM or above)) |  | 
3 | C=CC(=O)N1CC(CCn2c(=O)ccc3cnc(Nc4ccc(N5CCN(C)CC5)c(C#N)c4)nc32)C1 [Example 9, 5-((8-(2-(1-acryloylazetidin-3-yl)ethyl)-7-oxo-7,8-dihydropyrido[2,3-d]pyrimidin-2-yl)amino)-2-(4-methylpiperazin-1-yl)benzonitrile] | E (E represents a pKi value of 7 or below (Ki of 100 nM or above)) | E (E represents a pKi value of 7 or below (Ki of 100 nM or above)) | B (B represents a pC50 value between 6.7 (included) and 7.5 (IC50 between 200 nM and 32 nM)) | B (B represents pKi value between 9 and 10 (Ki between 1 nM and 0.1 nM)) | A (A represents a value of 3 or above) | E (E represents a pKi value of 7 or below (Ki of 100 nM or above)) |  | 
4 | C=CC(=O)N1CC(CCn2c(=O)ccc3cnc(Nc4ccc(N5CCN(S(=O)(=O)N(C)C)CC5)cc4)nc32)C1 [Example 97] | E (E represents a pKi value of 7 or below (Ki of 100 nM or above)) | E (E represents a pKi value of 7 or below (Ki of 100 nM or above)) | A (A represents a pIC50 value≥7.5 (IC50≤32 nM)) | B (B represents pKi value between 9 and 10 (Ki between 1 nM and 0.1 nM)) | A (A represents a value of 3 or above) | E (E represents a pKi value of 7 or below (Ki of 100 nM or above)) |  | 
5 | C=CC(=O)N1CC(CCn2c(=O)ccc3cnc(Nc4ccc(N5CCN(C(C)CC)CC5)cc4)nc32)C1 (stereo not drawn) [Example 115] | E (E represents a pKi value of 7 or below (Ki of 100 nM or above)) | E (E represents a pKi value of 7 or below (Ki of 100 nM or above)) | A (A represents a pIC50 value≥7.5 (IC50≤32 nM)) | B (B represents pKi value between 9 and 10 (Ki between 1 nM and 0.1 nM)) | A (A represents a value of 3 or above) | E (E represents a pKi value of 7 or below (Ki of 100 nM or above)) |  | 
6 | C=CC(=O)N1CCN(CCn2c(=O)ccc3cnc(Nc4cnn(CCOC(F)F)c4)nc32)[C@@H](C)C1 [Example 238] | E (E represents a pKi value of 7 or below (Ki of 100 nM or above)) | E (E represents a pKi value of 7 or below (Ki of 100 nM or above)) |  | B (B represents pKi value between 9 and 10 (Ki between 1 nM and 0.1 nM)) |  | E (E represents a pKi value of 7 or below (Ki of 100 nM or above)) | C (C represents a pIC50 value between 6 and 6.7 (IC50 between 1 μM and 200 nM)) | A (A represents a value of 3 or above)
